18 molecules from patent US6313153A, “Compositions and methods for treating nephritis and inhibiting TGF -β related conditions using pyridylacrylamide derivatives” (Tsumura & Co., priority 1997, dated 2001) can be followed below.

In this assay the test system is anti-GBM nephritic mice. Put plainly: anti-GBM nephritic mice: proteinuria, serum cholesterol, blood urea nitrogen and serum creatinine.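 For Proteinuria 10th day: minus not effective plus trend double p<0.05 triple p<0.01 quadruple p<0.001 improvement vs control.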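 For Proteinuria 5th day: minus not effective plus trend double p<0.05 triple p<0.01 quadruple p<0.001 improvement vs control.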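 For Serum Parameter BUN (blood urea nitrogen): minus not effective plus trend double p<0.05 triple p<0.01 quadruple p<0.001 improvement vs control.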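 For Serum Parameter S-Ch (serum cholesterol): minus not effective plus trend double p<0.05 triple p<0.01 quadruple p<0.001 improvement vs control.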 To be noted: for Total Evaluation: 3 × (number of + in proteinuria) + (number of + in serum parameter); for Proteinuria 5th day: 5th day from intravenous injection of anti-GBM serum; for Proteinuria 5th day / Proteinuria 10th day / Serum Parameter BUN (blood urea nitrogen) / Serum Parameter S-Ch (serum cholesterol) / Serum Parameter S-Cr (serum creatinine): oral; for Proteinuria 10th day: 10th day from intravenous injection of anti-GBM serum; for Serum Parameter BUN (blood urea nitrogen) / Serum Parameter S-Ch (serum cholesterol) / Serum Parameter S-Cr (serum creatinine): 11th day. Format: in vivo, BALB/c mice.

In the case of `CNC(=O)COc1cccc(CCNC(=O)/C=C/c2cccnc2)c1` [Compound 114, (E)-N-[3-[(methyl-carbamoyl)methoxy]phenethyl]-3-(3-pyridyl)-2-propenoic acid amide], the “Total Evaluation” value amounted to 24, the “Proteinuria 5th day” value is given as “+++”, the “Proteinuria 10th day” value was “+++” and the “Serum Parameter BUN (blood urea nitrogen)” value (“Serum Parameter BUN” for short) was “++”. The “Serum Parameter S-Ch (serum cholesterol)” value is reported as “+++” and the “Serum Parameter S-Cr (serum creatinine)” value is “+”.

Regarding `CCNC(=O)Oc1ccc(CCN(C)C(=O)/C=C/c2cccnc2)cc1OC(=O)NCC` [Compound 133], the “Total Evaluation” value came to 9, the “Proteinuria 5th day” value is listed as “+”, the “Proteinuria 10th day” value is reported as “+” and the “Serum Parameter BUN” value was “+”. Also, the “Serum Parameter S-Ch (serum cholesterol)” value was “+” and the “Serum Parameter S-Cr (serum creatinine)” value is “+”.

Take `CN(CCc1ccc(Cl)c(Cl)c1)C(=O)/C=C/c1cccnc1` [Compound 25]: the “Total Evaluation” value was 13, the “Proteinuria 5th day” value is “+”, the “Proteinuria 10th day” value is on record as “++” and the “Serum Parameter BUN” value is given as “+”. Besides, the “Serum Parameter S-Ch (serum cholesterol)” value is “+++” and the “Serum Parameter S-Cr (serum creatinine)” value was “+”.

Turning to `O=C(/C=C/c1cccnc1)NCCc1ccccc1O` [Compound 70, (E)-N-(2-hydroxyphenethyl)-3-(3-pyridyl)-2-propenoic acid amide], the “Total Evaluation” value turned out to be 22, the “Proteinuria 5th day” value is reported as “++”, the “Proteinuria 10th day” value is “+++” and the “Serum Parameter BUN” value is on record as “++”. For the same molecule, the “Serum Parameter S-Ch (serum cholesterol)” value is given as “+++” and the “Serum Parameter S-Cr (serum creatinine)” value is given as “++”.

`O=C(/C=C/c1cccnc1)NCCc1ccc(O)c(O)c1` [Compound 91]: the “Total Evaluation” value was 14, the “Proteinuria 5th day” value is “+”, the “Proteinuria 10th day” value was “+++” and the “Serum Parameter BUN” value is “-”. The “Serum Parameter S-Ch (serum cholesterol)” value is “++” and the “Serum Parameter S-Cr (serum creatinine)” value is reported as “-”.

Consider `O=C(/C=C(/c1ccccc1)c1cccnc1)NCCc1cccc(O)c1` [Compound 93], for which the “Total Evaluation” value was 8, the “Proteinuria 5th day” value is “-”, the “Proteinuria 10th day” value is on record as “-” and the “Serum Parameter BUN” value was “+++”. Also, the “Serum Parameter S-Ch (serum cholesterol)” value was “++” and the “Serum Parameter S-Cr (serum creatinine)” value is “+++”.

As for `COC(=O)COc1ccccc1CCNC(=O)/C=C/c1cccnc1` [Compound 102], the “Total Evaluation” value turned out to be 9, the “Proteinuria 5th day” value is recorded as “+”, the “Proteinuria 10th day” value is recorded as “++” and the “Serum Parameter BUN” value was “-”. Further, the “Serum Parameter S-Ch (serum cholesterol)” value is given as “-” and the “Serum Parameter S-Cr (serum creatinine)” value is recorded as “-”.

On to `COc1cccc(CCN(C)C(=O)/C=C/c2cccnc2)c1OC` [Compound 13], for which the “Total Evaluation” value stood at 13, the “Proteinuria 5th day” value is “+”, the “Proteinuria 10th day” value is “+++” and the “Serum Parameter BUN” value is reported as “+”. Besides, the “Serum Parameter S-Ch (serum cholesterol)” value is “-” and the “Serum Parameter S-Cr (serum creatinine)” value is recorded as “+”.

As for `N#C/C(=C\c1cccnc1)C(=O)NCCc1cccc(O)c1` [Compound 8], the “Total Evaluation” value is reported as 6, the “Proteinuria 5th day” value is given as “-”, the “Proteinuria 10th day” value was “++” and the “Serum Parameter BUN” value was “-”. The “Serum Parameter S-Ch (serum cholesterol)” value is recorded as “-” and the “Serum Parameter S-Cr (serum creatinine)” value is “-”.

As for `COc1ccc(C(=O)CN(C)C(=S)/C=C/c2cccnc2)cc1OC` [Compound 165, (E)-N-[2-(3,4-dimethoxyphenyl)-2-oxoethyl]-N-methyl-3-(3-pyridyl)-2-propenoic acid thioamide], the “Total Evaluation” value worked out at 22, the “Proteinuria 5th day” value is given as “+++”, the “Proteinuria 10th day” value is given as “+++” and the “Serum Parameter BUN” value is “+”. Also, the “Serum Parameter S-Ch (serum cholesterol)” value is listed as “+++” and the “Serum Parameter S-Cr (serum creatinine)” value is given as “-”.

Turning to `COc1ccc(CN(C)C(=O)/C=C/c2cccnc2)cc1OC` [Compound 20], the “Total Evaluation” value came to 13, the “Proteinuria 5th day” value is reported as “++”, the “Proteinuria 10th day” value is recorded as “+” and the “Serum Parameter BUN” value is on record as “+”. The “Serum Parameter S-Ch (serum cholesterol)” value is “+” and the “Serum Parameter S-Cr (serum creatinine)” value is “++”.

As for `NC(=O)COc1cccc(CCNC(=O)/C=C/c2cccnc2)c1` [Compound 115], the “Total Evaluation” value was found to be 10, the “Proteinuria 5th day” value is recorded as “-”, the “Proteinuria 10th day” value was “+” and the “Serum Parameter BUN” value is “++”. Also, the “Serum Parameter S-Ch (serum cholesterol)” value was “++” and the “Serum Parameter S-Cr (serum creatinine)” value is “+++”.

As to `COc1cc(CCN(C)C(=O)/C=C/c2cccnc2)cc(OC)c1` [Compound 18], the “Total Evaluation” value was 13, the “Proteinuria 5th day” value is reported as “+”, the “Proteinuria 10th day” value is “++” and the “Serum Parameter BUN” value was “++”. The “Serum Parameter S-Ch (serum cholesterol)” value is “++” and the “Serum Parameter S-Cr (serum creatinine)” value is “-”.

In the case of `CN(CCc1ccc(O)cc1)C(=O)/C=C/c1cccnc1` [Compound 87], the “Total Evaluation” value was determined as 19, the “Proteinuria 5th day” value is “+++”, the “Proteinuria 10th day” value is listed as “+” and the “Serum Parameter BUN” value is listed as “+++”. The “Serum Parameter S-Ch (serum cholesterol)” value was “++” and the “Serum Parameter S-Cr (serum creatinine)” value is on record as “++”.

For `O=C(/C=C/c1cccnc1)NCc1ccc(O)cc1` [Compound 45], the “Total Evaluation” value is 10, the “Proteinuria 5th day” value is on record as “++”, the “Proteinuria 10th day” value was “+” and the “Serum Parameter BUN” value was “-”. For the same molecule, the “Serum Parameter S-Ch (serum cholesterol)” value is listed as “+” and the “Serum Parameter S-Cr (serum creatinine)” value is recorded as “-”.

In the case of `O=C(/C=C/c1cccnc1)NCCc1cccc(O)c1` [Compound 75], the “Total Evaluation” value stood at 19, the “Proteinuria 5th day” value is “++”, the “Proteinuria 10th day” value is “+++” and the “Serum Parameter BUN” value was “+”. For the same molecule, the “Serum Parameter S-Ch (serum cholesterol)” value is “++” and the “Serum Parameter S-Cr (serum creatinine)” value is “+”.

As to `COc1ccc(CCN(C)C(=O)/C=C/c2cccnc2)cc1OC` [Compound 140], the “Total Evaluation” value is listed as 14, the “Proteinuria 5th day” value is “+”, the “Proteinuria 10th day” value is “++” and the “Serum Parameter BUN” value is reported as “++”. For the same molecule, the “Serum Parameter S-Ch (serum cholesterol)” value is given as “++” and the “Serum Parameter S-Cr (serum creatinine)” value is recorded as “+”.

Take `Cl.N#C/C(=C\c1cccnc1)C(=O)NCCc1ccc(O)cc1` [Compound 6, (E)-2-cyano-N-(4-hydroxyphenethyl)-3-(3-pyridyl)-2-propenoic acid amide hydrochloride]: the “Total Evaluation” value is reported as 16, the “Proteinuria 5th day” value is given as “++”, the “Proteinuria 10th day” value is on record as “+++” and the “Serum Parameter BUN” value was “-”. In addition, the “Serum Parameter S-Ch (serum cholesterol)” value was “+” and the “Serum Parameter S-Cr (serum creatinine)” value was “-”.
